Data from patent US20220220106A1, “QUINOLINE COMPOUNDS AND PHARMACEUTICAL COMPOSITIONS AND USES THEREOF” (Academy of Military Medical Sciences, priority 2019, published 2022).
Read-outs that look alike come from different tables or passages of the source.

Experiments:
mTORC1 = target: T1, mTORC1 (Homo sapiens, UniProt P42345); assay: Western blot, phosphorylation of Thr389 of p70S6K1 in RD cells (mTORC1 inhibition); assay type: cell-based; conditions: 20 μM, 2 hours, Western blot (FIG. 1)
T1 construct: endogenous in cells; host or cells: RD cells
Protocol: In order to test the inhibitory activity of the synthesized compounds on the two mTOR complexes, the inhibitory activity experiments of mTORC1 and mTORC2 were carried out. Since mTORC1 and mTORC2 exerted their function by activating the phosphorylation of downstream substrates, the inhibitory activity of the compounds on mTORC1 and mTORC2 could be determined by detecting the phosphorylation levels of the Thr389 site of mTORC1 downstream substrate p70S6K1 and the Ser473 site of mTORC2 downstream substrate Akt.
Pretreatment of Compound:
(1) RD cells were cultured in DMEM medium containing 10% FBS and 1×PS (penicillin and streptomycin were at concentrations 100 IU and 100 μg/mL, respectively) at 37° C. and 5% CO2.
(2) The RD cells (5×10^5 cells/2 mL medium) were inoculated into a 6-well plate and incubated at 37° C. and 5% CO2 for 24 hours.
(3) The cells were washed once with PBS, and the cells were cultured in serum-free medium without nutrients overnight.
(4) Formulation of compounds: […]
Preparation of insulin medium: Insulin was diluted in DMEM medium containing 10% FBS and 1×PS so that the final concentration of insulin was 167 nM.
Pretreatment of compound to be tested: The compound was dissolved in DMSO so that the concentration of the test compound was 20 mM, and the compound was diluted in 167 nM insulin medium to reach a concentration of 20 μM.
Preparation of rapamycin solution: Rapamycin was dissolved in DMSO to a concentration of 10 mM, and the rapamycin was diluted in 167 nM insulin medium to reach a concentration of 20 μM.
(5) The serum-free medium in each well was removed.
(6) 2 mL of complete medium containing DMSO was added to each well as a control carrier. The final concentration of DMSO was 0.2%.
(7) 2 mL of 20 μM rapamycin solution and 20 μM the compound to be tested were added to the designated wells, respectively. The final concentration of DMSO was 0.2%.
(8) The cells were incubated for 2 hours at 37° C. and 5% CO2.
Protein extraction and concentration determination:
(1) The cells were washed once with refrigerated PBS, and then the PBS was discarded.
(2) 150 μL of cell extraction buffer (RIPA, […], catalog number: C1053) was transferred into each well to lyse the cells, and then the resulting cell solution were incubated on ice for 30 minutes.
(3) Centrifugation was performed at 14000 rpm (13000× g) for 30 minutes at 4° C.
(4) The supernatant was transferred into a new eppendorf tube, and the cell lysate was stored at −80° C. before testing.
(5) The protein concentration was determined by BCA method.
Preparation of Buffer Solutions:
(1) 100× Protease inhibitor (Beyotime, catalog number: P1005): 1 mL of redistilled water was added to the protease inhibitor and stirred gently until the solid was completely dissolved.
(2) Lysis Buffer: […] of 100× protease inhibitor and 2× phosphatase inhibitor Cocktails PhosSTOP (Beyotime, catalog number: P1082) were added to 100 mL of the cell extract, and stirred gently until it was completely dissolved.
(3) Electrophoresis Running Buffer:
10×MOPS buffer: 52.33 g of MOPS, 30.29 g of Tris base, 10 mL of 0.5 mol/L EDTA (pH 8.5) and 5 g of SDS was dissolved in 400 mL of redistilled water, stirred to dissolve, and the pH was adjusted to 7.5, then redistilled water was added again to reach a volume of 500 mL; 1×MOPS: 100 mL of 10×MOPS was diluted with redistilled water to 1000 mL.
(4) 1× Transfer Buffer: […] of 10× transfer buffer (144 g of glucine, 30.3 g of trisbase, and distilled water were mixed to reach a volume of 1 L) and 400 mL of methanol were dissolved in 1500 mL of redistilled water, and then the redistilled water was added to reach a volume of 2000 mL. […]

[1] = test system: Enterovirus 71 (EV71) H strain; assay: In vitro anti-EV71 activity (antiviral activity in RD cells, CellTiter-Glo); assay type: cell-based; conditions: for IC50: Enterovirus A, 96 h; for in vitro anti-EV71 activity, in words: EV71, RD cells
In short: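 RD cells infected with 100TCID50 EV71 in DMEM+2% FBS, with compound in 10-point three-fold dilutions, cultured 4 days at 37° C. Cell viability by CellTiter-Glo luminescence; inhibition rate relative to cell control fitted to S-curve for IC50. TD50 derived likewise; SI=TD50/IC50.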

[2] = EV71 H strain, RD cells, 4 days, CellTiter-Glo, read-out: IC50

O=c1ccc2cnc3ccc(-c4ccc5ncccc5c4)cc3c2n1-c1cccc(C(F)(F)F)c1 [HTL-6-47, 9-(6-quinolyl)-2-oxo-1-[3-(trifluoromethyl)phenyl]-1,2-dihydrobenzo[h][1,6]naphthyridine]
p70 phosphorylation expression level (mTORC1): significantly down-regulate | IC50 [1, 2]: 0.25 ± 0.23 µM

CCCC(=O)Nc1ccc(-c2ccc3ncc4ccc(=O)n(-c5cccc(C(F)(F)F)c5)c4c3c2)cn1 [HTL-7-05, 9-[3-(6-butyrylamino)pyridyl]-2-oxo-1-[3-(trifluoromethyl)phenyl]-1,2-dihydrobenzo[h][1,6]naphthyridine]
p70 phosphorylation expression level (mTORC1): significantly down-regulate | IC50 [1, 2]: 0.13 ± 0.06 µM

O=C(Cc1ccccc1)Nc1ccc(-c2ccc3ncc4ccc(=O)n(-c5cccc(C(F)(F)F)c5)c4c3c2)cn1 [HTL-7-10, 9-[3-(6-phenylacetylamino)pyridyl]-2-oxo-1-[3-(trifluoromethyl)phenyl]-1,2-dihydrobenzo[h][1,6]naphthyridine]
p70 phosphorylation expression level (mTORC1): significantly down-regulate | IC50 [1, 2]: 0.39 ± 0.18 µM

CC(C)(C)OC(=O)Nc1ccc(-c2ccc3ncc4ccc(=O)n(-c5cccc(C(F)(F)F)c5)c4c3c2)cn1 [HTL-7-21, 9-[3-(6-tert-butoxycarbonylamino)pyridyl]-2-oxo-1-[3-(trifluoromethyl)phenyl]-1,2-dihydrobenzo[h][1,6]naphthyridine]
p70 phosphorylation expression level (mTORC1): significantly down-regulate | IC50 [1, 2]: 2.08 ± 2.29 µM

O=c1ccc2cnc3ccc(-c4ccc(N5CCCC5)nc4)cc3c2n1-c1cccc(C(F)(F)F)c1 [HTL-7-20, 9-[3-(6-pyrrolidinyl)pyridyl]-2-oxo-1-[3-(trifluoromethyl)phenyl]-1,2-dihydrobenzo[h][1,6]naphthyridine]
p70 phosphorylation expression level (mTORC1): significantly down-regulate | IC50 [1, 2]: 0.1 ± 0.01 µM

COc1ncc(-c2ccc3ncc4ccc(=O)n(-c5cccc(C(F)(F)F)c5)c4c3c2)cn1 [HTL-7-06, 9-[5-(2-methoxy)pyrimidyl]-2-oxo-1-[3-(trifluoromethyl)phenyl]-1,2-dihydrobenzo[h][1,6]naphthyridine]
p70 phosphorylation expression level (mTORC1): significantly down-regulate | IC50 [1, 2]: 0.05 ± 0.01 µM

CN1CCN(c2ccc(-c3ccc4ncc5ccc(=O)n(-c6cccc(C(F)(F)F)c6)c5c4c3)cn2)CC1 [HTL-7-17, 9-{3-[6-(4-methylpiperazin-1-yl)pyridyl]}-2-oxo-1-[3-(trifluoromethyl)phenyl]-1,2-dihydrobenzo[h][1,6]naphthyridine]
p70 phosphorylation expression level (mTORC1): significantly down-regulate | IC50 [1, 2]: 0.1 ± 0.03 µM

COc1ccc(-c2ccc3ncc4ccc(=O)n(-c5cccc(C(F)(F)F)c5)c4c3c2)cn1 [HTL-7-03, 9-[3-(6-methoxy)pyridyl]-2-oxo-1-[3-(trifluoromethyl)phenyl]-1,2-dihydrobenzo[h][1,6]naphthyridine]
p70 phosphorylation expression level (mTORC1): significantly down-regulate | IC50 [1, 2]: 0.04 ± 0.01 µM

O=c1ccc2cnc3ccc(-c4cc[nH]n4)cc3c2n1-c1cccc(C(F)(F)F)c1 [HTL-6-50, 9-[(1H)-3-pyrazolyl]-2-oxo-1-[3-(trifluoromethyl)phenyl]-1,2-dihydrobenzo[h][1,6]naphthyridine]
p70 phosphorylation expression level (mTORC1): significantly down-regulate | IC50 [1, 2]: > 200 µM

CC(=O)/C=C/c1cnc2ccc(-c3ccc(C)nc3)cc2c1Nc1cccc(C(F)(F)F)c1 [HTL-2-38, (E)-6-[3-(6-methyl)pyridyl]-4-[3-(trifluoromethyl)phenyl]aminoquinoline-3-butenone]
p70 phosphorylation expression level (mTORC1): significantly down-regulate | in vitro anti-EV71 activity, in words [1]: moderate anti-EV71 activity | IC50 [1, 2]: 2.85 ± 1.2 µM

Nc1cccc(Nc2ccc3ncc4ccc(=O)n(-c5cccc(C(F)(F)F)c5)c4c3c2)n1 [HTL-6-12, 9-[2-(6-aminopyridyl)]imino-2-oxo-1-[3-(trifluoromethyl)phenyl]-1,2-dihydrobenzo[h][1,6]naphthyridine]
p70 phosphorylation expression level (mTORC1): significantly down-regulate | in vitro anti-EV71 activity, in words [1]: moderate activity | IC50 [1, 2]: 1.23 ± 0.22 µM

O=c1ccc2cnc3ccc(-c4cccnc4F)cc3c2n1-c1cccc(C(F)(F)F)c1 [HTL-6-48, 9-[3-(2-fluoro)pyridyl]-2-oxo-1-[3-(trifluoromethyl)phenyl]-1,2-dihydrobenzo [h][1,6]naphthyridine]
p70 phosphorylation expression level (mTORC1): significantly down-regulate | in vitro anti-EV71 activity, in words [1]: high activity | IC50 [1, 2]: 0.059 µM

NC(=O)c1ccc(-c2ccc3ncc4oc(=O)n(-c5cccc(C(F)(F)F)c5)c4c3c2)cc1 [HTL-5-21, 8-(4-carbamoyl)phenyl-1-[3-(trifluoromethyl)phenyl]oxazolo[5,4-c]quinolin-2(1H)-one]
p70 phosphorylation expression level (mTORC1): significantly down-regulate | in vitro anti-EV71 activity, in words [1]: moderate inhibitory activity | IC50 [1, 2]: 2 ± 0.3 µM

Cc1ncccc1-c1ccc2ncc3ccc(=O)n(-c4cccc(C(F)(F)F)c4)c3c2c1 [HTL-6-49, 9-[3-(2-methyl)pyridyl]-2-oxo-1-[3-(trifluoromethyl)phenyl]-1,2-dihydrobenzo[h][1,6]naphthyridine]
p70 phosphorylation expression level (mTORC1): significantly down-regulate | IC50 [1, 2]: 0.07 ± 0.01 µM

O=C(Nc1ccc(-c2ccc3ncc4ccc(=O)n(-c5cccc(C(F)(F)F)c5)c4c3c2)cn1)Oc1ccccc1 [HTL-7-15, 9-[3-(6-phenoxyamido)pyridyl]-2-oxo-1-[3-(trifluoromethyl)phenyl]-1,2-dihydrobenzo[h][1,6]naphthyridine]
p70 phosphorylation expression level (mTORC1): significantly down-regulate | IC50 ([1]; EV71, RD): 0.09 ± 0.02 µM

NC(=O)/C=C/c1ccc2ncc3oc(=O)n(-c4cccc(C(F)(F)F)c4)c3c2c1 [HTL-6-30, (E)-8-(2-carbamoyl-vinyl)-1-[3-(trifluoromethyl)phenyl]oxazolo[5,4-c]quinolin-2(1H)-one]
p70 phosphorylation expression level (mTORC1): significantly down-regulate | in vitro anti-EV71 activity, in words [1]: moderate inhibitory activity | IC50 [1, 2]: 3.7 ± 0.21 µM

O=c1ccc2cnc3ccc(-c4ccc(N5CCOCC5)nc4)cc3c2n1-c1cccc(C(F)(F)F)c1 [HTL-7-18, 9-[3-(6-morpholin-4-yl)pyridyl]-2-oxo-1-[3-(trifluoromethyl)phenyl]-1,2-dihydrobenzo[h][1,6]naphthyridine]
p70 phosphorylation expression level (mTORC1): significantly down-regulate | IC50 [1, 2]: 1.8 ± 1.17 µM

COc1ccc(CC(=O)Nc2ccc(-c3ccc4ncc5ccc(=O)n(-c6cccc(C(F)(F)F)c6)c5c4c3)cn2)cc1 [HTL-7-11, 9-{3-[6-(4-methoxy)phenylacetylamino]pyridyl}-2-oxo-1-[3-(trifluoromethyl)phenyl]-1,2-dihydrobenzo[h][1,6]naphthyridine]
p70 phosphorylation expression level (mTORC1): significantly down-regulate | IC50 [1, 2]: 0.095 ± 0.007 µM

CCCCC(=O)Nc1ccc(-c2ccc3ncc4ccc(=O)n(-c5cccc(C(F)(F)F)c5)c4c3c2)cn1 [HTL-7-08, 9-[3-(6-valerylamino)pyridyl]-2-oxo-1-[3-(trifluoromethyl)phenyl]-1,2-dihydrobenzo[h][1,6]naphthyridine]
p70 phosphorylation expression level (mTORC1): significantly down-regulate | IC50 [1, 2]: 0.2 ± 0.02 µM
